Experiments:
[1] = target: neurokinin receptor (Homo sapiens, UniProt P25103); conditions: non-peptide antagonist which selectively binds to the receptor; cited from earlier work
[2] = target: T1, neurokinin receptor (U-373MG glioma cell line) (Homo sapiens, UniProt P25103); experiment: Neurokinin receptor inhibition: binding of fluorescent substance P to U-373MG cells; conditions: 50 nM sample, 50nM SP
T1 construct: Cell line (U-373MG glioma cell line) over-expressing neurokinin receptor; host or cells: U-373MG glioma cell line
T1 sequence (P25103 whole entry): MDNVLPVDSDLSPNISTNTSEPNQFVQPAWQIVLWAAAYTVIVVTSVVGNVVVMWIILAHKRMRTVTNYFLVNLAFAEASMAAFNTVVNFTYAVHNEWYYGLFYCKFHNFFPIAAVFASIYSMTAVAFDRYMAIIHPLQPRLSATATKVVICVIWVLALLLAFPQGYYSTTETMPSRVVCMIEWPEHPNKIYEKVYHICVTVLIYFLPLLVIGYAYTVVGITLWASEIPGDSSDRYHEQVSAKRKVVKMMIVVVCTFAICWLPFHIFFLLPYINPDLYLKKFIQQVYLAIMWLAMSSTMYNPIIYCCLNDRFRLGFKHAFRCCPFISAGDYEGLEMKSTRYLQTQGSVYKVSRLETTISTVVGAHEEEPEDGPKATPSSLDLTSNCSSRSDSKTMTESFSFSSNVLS
Procedure: Cell line (U-373MG glioma cell line) over-expressing neurokinin receptor was purchased from Korean Cell Line Bank. The cell line was incubated with 5% CO2 in a medium (90% of RPMI 1640, 10% of fetal bovine serum, 100 IU/ml of penicillin, 100 μg/ml of streptomycin, 2 mM of L-glutamine, and 1.0 mM of sodium pyruvate), and was sub-cultured every 6-8 days with 0.25% trypsin solution.
Cells were diluted to have various cell numbers, and were seeded onto a 24-well plate. After 48 hours, substance P (SP) connected with a probe was added in various concentrations. After some time for reaction, the concentration of fluorescence probe-containing SP (Oregon Green488 conjugate, Molecular Probes, Eugene, Oreg.) bound to the receptor was measured with a fluorophotometer according to the number of cells and the concentrations, through which the ideal condition was established [V J. Bennett et al., BMC Chem. Biol., 1:1, 2001]. Non-peptide antagonist, L-733060 (estimated affinity=0.8nM), which selectively binds to the receptor was used as a control [R. Bang et al., J. Pharmacol. Exp. Ther., 305, p 31-39, 2003].
50% Ethanol aqueous solution extract of Atractylodes japonica was solved in DMSO (the final concentration is within 0.1%) and diluted with distilled water. […] Then, cells were dissolved in 5% Triton X-100, and their fluorescence (Ex 485/Em 528) was measured with black, opaque 96-well plate. […]

Sequence of neurokinin receptor (P25103 whole entry): as above

For `FC(F)(F)c1cc(CO[C@H]2CCCN[C@H]2c2ccccc2)cc(C(F)(F)F)c1` [Extract L-733060, L-733060], the estimated affinity [1] is given as 0.8 nM and the “Relative Inhibitory Activity (%)” value [2] is given as 72 ± 8 %.

Source: patent publication US20120128807A1, “COMPOSITION FOR PREVENTING OR TREATING IRRITABLE BOWEL SYNDROME” (SK CHEMICALS CO., LTD., priority 2009, published 2012)
